Reference: US20240109855A1, “ANTI-QUORUM SENSING, ANTI-BIOFILM, AND INFLAMMATION ATTENUATING COMPOUNDS, COMPOSITIONS, AND METHODS OF USING SAME” (priority 2021, published 2024)
Entries after “also recorded” stand apart in the source; their conditions may differ.

Columns and labels:
[1] = tested on: Chromobacterium violaceum (CV026); assay: Quorum sensing inhibition test with bio-reporter CV026 (TLC overlay); type: cell-based; settings: for QSI activity against CV026, in words: running text; for Degree of QSI of CV026: Table 1, coumaperine derivatives, 40 mM in ~20 μL acetonitrile dried on TLC plate, overnight, color intensity; as to Degree of QSI of CV026: key: −: no inhibition; +: low inhibition; ++: medium inhibition; +++: strong inhibition; as to Degree of quorum sensing inhibition (QSI), CV026: key: −: no inhibition; +: low inhibition; ++: medium inhibition; +++: strong inhibition
Protocol: (§1) TLC preparation: all derivatives were dissolved in 100% acetonitrile to a concentration of 40 mM. Then placed 20 μlon the same spot on the TLC and let the solvent evaporate before use. CV026: few colonies were transferred to liquid LB (Lenox) for overnight incubation at 30° C. in a 45 degree in orbital shaker. At the O.D. 0.8 3 ml of the starter was added to preheated soft LB agar containing 500 nM of 3-oxo-C6 (Sigma-Aldrich). The mixture was then loaded on the TLC in a glass plate for O.N. incubation in 30° C. The next day inhibition zone was measured, while QS is taking place bacteria produce purple pigment, and when QS is inhibited no pigment is produced. KYC55 (pJZ372) (pJZ384) (pJZ410): 20 μl from the frozen stock into 25 ml AT media (AT buffer×20: 1.57 M KH2PO4 pH=7.3. AT salts mix×20: 300 mM (NH4)2SO4, 13 mM MgSO4, 1.4 mM CaCl2, 0.4 mM FeSO4·7H2O, 0.26 mM MnSO4·H2O. AT media: 50 ml×20 AT-buffer, 50 ml×20 AT-salts, 10 ml 50% (w/v) glucose, add 890 ml to final volume of 1 liter.) For O.N. at 30° C. in an orbital shaker. Into preheated water agar with 25 ml AT-buffer, and 60 μg/ml X-gal and 5 nM 3-oxo-c8 (both from Sigma-Aldrich) 25 ml of the starter was added. Then, that mixture was loaded on the TLC in glass plate for O.N. incubation in 30° C. The next day the inhibition zone was measured. The bacteria produce blue pigment during QS and when QS is inhibited no pigment is produced. KYC55 (pJZ372) (pJZ384) (pJZ410) preservation in tetracycline (1 μg/ml), spectinomycin (100 μg/ml), gentamicin (100 μg/ml) (all antibiotics from Sigma Aldrich) in AT media O.N. then centrifuged and suspend in 15% glycerol frozen and maintained at −80° C.

[2] = tested on: Agrobacterium tumefaciens (KYC55); assay: Quorum sensing inhibition test with bio-reporter KYC55 (TLC overlay); type: cell-based; settings: for QSI activity against KYC55, in words: running text; for Degree of QSI of KYC55: Table 1, coumaperine derivatives, 40 mM in ~20 μL acetonitrile dried on TLC plate, overnight, color intensity; as to Degree of QSI of KYC55: key: −: no inhibition; +: low inhibition; ++: medium inhibition; +++: strong inhibition; as to Degree of quorum sensing inhibition (QSI), KYC55: key: −: no inhibition; +: low inhibition; ++: medium inhibition; +++: strong inhibition
Protocol: as §1

[3] = Table 2, piperlongumine derivatives

## COc1cc(/C=C/C(=O)CC(=O)/C=C/c2ccc(OC(C)=O)c(OC)c2)ccc1OC(C)=O [AC-CU, Diacetylated Curcumin]
[1]; Table 3, curcumin derivatives
  Degree of quorum sensing inhibition (QSI), CV026: −
[1]
  QSI activity against CV026, in words: inactive
[2]; Table 3, curcumin derivatives
  Degree of quorum sensing inhibition (QSI), KYC55: −
[2]
  QSI activity against KYC55, in words: inactive

## COc1cc(/C=C/C(=O)NC(C)C)cc(OC)c1OC
[1]; [3]
  Degree of quorum sensing inhibition (QSI), CV026: −
[2]; [3]
  Degree of quorum sensing inhibition (QSI), KYC55: −

## COc1cc(/C=C/C(=O)OC(=O)/C=C/c2cc(OC)c(OC)c(OC)c2)cc(OC)c1OC [PL-16A]
[1]; [3]
  Degree of quorum sensing inhibition (QSI), CV026: −
[1]
  QSI activity against CV026, in words: inactive
[2]; [3]
  Degree of quorum sensing inhibition (QSI), KYC55: −
[2]
  QSI activity against KYC55, in words: inactive

## O=C(/C=C/C=C/c1ccc(OC2CCCC2)cc1)N1CCCCC1 [CP-184, (2E,4E)-5-(4-(cyclopentyloxy)phenyl)-1-(piperidin-1-yl)penta-2,4-dien-1-one]
[1]
  Degree of QSI of CV026: −
  QSI activity against CV026, in words: inactive
[2]
  Degree of QSI of KYC55: −
  QSI activity against KYC55, in words: inactive

## COc1cc(/C=C/C(=O)N2CCCCC2=O)cc(OC)c1OC [PL-31]
[1]; [3]
  Degree of quorum sensing inhibition (QSI), CV026: +
[1]
  QSI activity against CV026, in words: low activity
[2]; [3]
  Degree of quorum sensing inhibition (QSI), KYC55: −
[2]
  QSI activity against KYC55, in words: inactive

## O=C(/C=C/C=C/c1cc(O)c(O)c(O)c1)N1CCCCC1 [CP-262-F2, (2E,4E)-1-(piperidin-1-yl)-5-(3,4,5-trihydroxyphenyl)penta-2,4-dien-1-one]
[1]
  Degree of QSI of CV026: −
  QSI activity against CV026, in words: inactive
[2]
  Degree of QSI of KYC55: +
  QSI activity against KYC55, in words: low activity

## COc1cc(/C=C/C=C/C(=O)N2CCCCC2)cc(OC)c1OC [CP-27, (2E,4E)-1-(piperidin-1-yl)-5-(3,4,5-trimethoxyphenyl)penta-2,4-dien-1-one]
[1]
  Degree of QSI of CV026: −
  QSI activity against CV026, in words: inactive
[2]
  Degree of QSI of KYC55: −
  QSI activity against KYC55, in words: inactive

## CN(C)c1ccc(/C=C/C=C/C(=O)N2CCCCC2)cc1 [CP-32, (2E,4E)-5-(4-(dimethylamino)phenyl)-1-(piperidin-1-yl)penta-2,4-dien-1-one]
[1]
  QSI activity against CV026, in words: low activity
[2]
  QSI activity against KYC55, in words: inactivity

## CCNC(=O)/C=C/c1cc(OC)c(OC)c(OC)c1 [PL-17, (E)-N-ethyl-3-(3,4,5-trimethoxyphenyl)acrylamide]
[1]; [3]
  Degree of quorum sensing inhibition (QSI), CV026: −
[1]
  QSI activity against CV026, in words: inactive
[2]; [3]
  Degree of quorum sensing inhibition (QSI), KYC55: −
[2]
  QSI activity against KYC55, in words: inactive

## COc1cc(OC)c(/C=C/C=C/C(=O)N2CCCCC2)c(OC)c1 [CP-194, (2E,4E)-1-(piperidin-1-yl)-5-(2,4,6-trimethoxyphenyl)penta-2,4-dien-1-one]
[1]
  Degree of QSI of CV026: −
  QSI activity against CV026, in words: inactive
[2]
  Degree of QSI of KYC55: −
  QSI activity against KYC55, in words: inactive

## C=CCNC(=O)/C=C/c1cc(OC)c(OC)c(OC)c1
[1]; [3]
  Degree of quorum sensing inhibition (QSI), CV026: −
[2]; [3]
  Degree of quorum sensing inhibition (QSI), KYC55: +

## COc1cc(CCC(=O)CC(=O)CCc2ccc(OC(C)=O)c(OC)c2)ccc1OC(C)=O [AC-THC, Diacetylated Tetrahydrocurcumin]
[1]; Table 3, curcumin derivatives
  Degree of quorum sensing inhibition (QSI), CV026: −
[1]
  QSI activity against CV026, in words: inactive
[2]; Table 3, curcumin derivatives
  Degree of quorum sensing inhibition (QSI), KYC55: −
[2]
  QSI activity against KYC55, in words: inactive

## COc1cc(/C=C/C(=O)N2CCCCC2)cc(OC)c1OC
[1]; [3]
  Degree of quorum sensing inhibition (QSI), CV026: −
[2]; [3]
  Degree of quorum sensing inhibition (QSI), KYC55: −

## CCNC(=O)/C=C/c1cc(OC)c(O)c(OC)c1
[1]; [3]
  Degree of quorum sensing inhibition (QSI), CV026: −
[2]; [3]
  Degree of quorum sensing inhibition (QSI), KYC55: −

## COc1cc(/C=C/C=C/C(=O)N2CCCCC2)cc(OC)c1 [CP-193, (2E,4E)-5-(3,5-dimethoxyphenyl)-1-(piperidin-1-yl)penta-2,4-dien-1-one]
[1]
  Degree of QSI of CV026: +
  QSI activity against CV026, in words: low activity
[2]
  Degree of QSI of KYC55: −
  QSI activity against KYC55, in words: inactivity

## COc1ccc(/C=C/C=C/C=C/C(=O)N2CCCCC2)cc1 [CP-102, (2E,4E,6E)-7-(4-methoxyphenyl)-1-(piperidin-1-yl)hepta-2,4,6-trien-1-one]
[1]
  Degree of QSI of CV026: ++
  QSI activity against CV026, in words: moderate
[2]
  Degree of QSI of KYC55: +
  QSI activity against KYC55, in words: low

## O=C(/C=C/C=C/C=C/c1ccc(O)c(O)c1)N1CCCCC1 [CP-239A, (2E,4E,6E)-7-(3,4-dihydroxyphenyl)-1-(piperidin-1-yl)hepta-2,4,6-trien-1-one]
[1]
  Degree of QSI of CV026: −
  QSI activity against CV026, in words: inactive
[2]
  Degree of QSI of KYC55: −
  QSI activity against KYC55, in words: inactive

## O=C(/C=C/C=C/c1ccc2c(c1)OCO2)N1CCCCC1 [CP-262-F1]
[1]
  Degree of QSI of CV026: −
  QSI activity against CV026, in words: inactive
[2]
  Degree of QSI of KYC55: −
  QSI activity against KYC55, in words: inactive

## O=C(CCCCc1ccc2c(c1)OCO2)N1CCCCC1 [CP-THP, Tetrahydro Piperine]
[1]
  Degree of QSI of CV026: +
  QSI activity against CV026, in words: low activity
[2]
  Degree of QSI of KYC55: +
  QSI activity against KYC55, in words: low activity

## COc1cc(/C=C/C(=O)CC(=O)/C=C/c2ccc(O)c(OC)c2)ccc1O [curcumin, Curcumin, reference compound]
[1]; Table 3, curcumin derivatives
  Degree of quorum sensing inhibition (QSI), CV026: +
[1]
  QSI activity against CV026, in words: low activity
[2]; Table 3, curcumin derivatives
  Degree of quorum sensing inhibition (QSI), KYC55: −
[2]
  QSI activity against KYC55, in words: inactive

## COc1ccc(/C=C/C=C/C(=O)N2CCCCC2)cc1OC [CP-10, (2E,4E)-5-(3,4-dimethoxyphenyl)-1-(piperidin-1-yl)penta-2,4-dien-1-one]
[1]
  Degree of QSI of CV026: −
  QSI activity against CV026, in words: inactive
[2]
  Degree of QSI of KYC55: −
  QSI activity against KYC55, in words: inactive

## COc1cc(/C=C/C(=O)N2CCCCC2)ccc1O [CP-293]
[1]
  Degree of QSI of CV026: −
  QSI activity against CV026, in words: inactive
[2]
  Degree of QSI of KYC55: −
  QSI activity against KYC55, in words: inactive

## COc1cc(/C=C/C(=O)N2CCCCC2)ccc1OC(C)=O [CP-291]
[1]
  Degree of QSI of CV026: −
  QSI activity against CV026, in words: inactive
[2]
  Degree of QSI of KYC55: ++
  QSI activity against KYC55, in words: moderate activity

## COc1cc(/C=C/C(=O)NCCCCC(=O)O)cc(OC)c1OC
[1]; [3]
  Degree of quorum sensing inhibition (QSI), CV026: −
[2]; [3]
  Degree of quorum sensing inhibition (QSI), KYC55: −

## CCOC(=O)CNC(=O)/C=C/c1cc(OC)c(OC)c(OC)c1
[1]; [3]
  Degree of quorum sensing inhibition (QSI), CV026: −
[2]; [3]
  Degree of quorum sensing inhibition (QSI), KYC55: −

## COc1ccc(/C=C/C=C/C(=O)N2CCCCC2)c(OC)c1OC [CP-50, (2E,4E)-1-(piperidin-1-yl)-5-(2,3,4-trimethoxyphenyl)penta-2,4-dien-1-one]
[1]
  Degree of QSI of CV026: −
  QSI activity against CV026, in words: inactive
[2]
  Degree of QSI of KYC55: −
  QSI activity against KYC55, in words: inactive

## COc1cc(/C=C/C(=O)NCCO)cc(OC)c1OC
[1]; [3]
  Degree of quorum sensing inhibition (QSI), CV026: −
[2]; [3]
  Degree of quorum sensing inhibition (QSI), KYC55: −

## O=C(/C=C/C=C/c1ccc(Cl)cc1)N1CCCCC1 [CP-123, (2E,4E)-5-(4-chlorophenyl)-1-(piperidin-1-yl)penta-2,4-dien-1-one]
[1]
  Degree of QSI of CV026: −
  QSI activity against CV026, in words: inactive
[2]
  Degree of QSI of KYC55: +
  QSI activity against KYC55, in words: low activity

## COc1cc(/C=C/C(=O)NCCc2ccc(O)c(O)c2)cc(OC)c1OC
[1]; [3]
  Degree of quorum sensing inhibition (QSI), CV026: −
[2]; [3]
  Degree of quorum sensing inhibition (QSI), KYC55: −

## O=C(/C=C/C=C/c1ccc(O)cc1)N1CCCCC1 [CP, (2E,4E)-5-(4-hydroxyphenyl)-1-(piperidin-1-yl)penta-2,4-dien-1-one]
[1]
  QSI activity against CV026, in words: low activity
[2]
  QSI activity against KYC55, in words: inactivity

## O=C(/C=C/C=C/c1ccc(O)c(O)c1)N1CCCCC1 [CP-209, (2E,4E)-5-(3,4-dihydroxyphenyl)-1-(piperidin-1-yl)penta-2,4-dien-1-one]
[1]
  Degree of QSI of CV026: +
  QSI activity against CV026, in words: low activity; also recorded: inactive
[2]
  Degree of QSI of KYC55: +
  QSI activity against KYC55, in words: low activity; also recorded: inactive

## COc1cc(/C=C/C(=O)NCC(=O)O)cc(OC)c1OC
[1]; [3]
  Degree of quorum sensing inhibition (QSI), CV026: −
[2]; [3]
  Degree of quorum sensing inhibition (QSI), KYC55: +

## COc1cc(/C=C/C(=O)NCCc2ccc(O)cc2)cc(OC)c1OC
[1]; [3]
  Degree of quorum sensing inhibition (QSI), CV026: −
[2]; [3]
  Degree of quorum sensing inhibition (QSI), KYC55: −
